Data from the supplement of paper PMC4932681.
Structures can show the parent of a compound that is named as a salt.

What was measured:
[1] = system: MCF-7; experiment: relative IC50 (midpoint of fitted logistic curve, plateau may be below 50% inhibition; CellTiter-Glo viability); higher = less potent; settings: 72 h
Summary of the method: (§1)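 Breast cancer cell lines and their resistant derivatives were seeded into 384-well plates containing library drugs at five concentrations across a 10 000-fold range, with resistant lines kept in medium with 1 μM of the selecting drug. After 72 h at 37 °C, CellTiter-Glo viability was read on a PHERAstar and normalised to vehicle-only and positive controls. Logistic dose–response fits in the Breeze pipeline gave drug sensitivity score, relative IC50 (curve midpoint) and top-dose inhibition.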

[2] = system: BT-474 Tam1; experiment: as above; settings: 4-OH-tamoxifen in medium 1 µM; 72 h
Summary of the method: as §1

[3] = system: T-47D Tam1; experiment: as above; settings: 4-OH-tamoxifen in medium 1 µM; 72 h
Summary of the method: as §1

[4] = system: BT-474; experiment: as above; settings: 72 h
Summary of the method: as §1

[5] = system: T-47D; experiment: as above; settings: 72 h
Summary of the method: as §1

[6] = system: BT-474 Tam2; experiment: as above; settings: 4-OH-tamoxifen in medium 1 µM; 72 h
Summary of the method: as §1

[7] = system: T-47D Tam2; experiment: as above; settings: 4-OH-tamoxifen in medium 1 µM; 72 h
Summary of the method: as §1

[8] = system: MCF-7; experiment: drug sensitivity score (DSS) (DSS (dimensionless)); higher = more sensitive; extreme values may be limits of the assay; settings: 72 h
Procedure: (§2)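 FIMM FO2B library drugs were tested at 5 concentrations (10,000-fold range) for 72 h, with CellTiter-Glo viability normalised to DMSO and benzethonium chloride controls. The Drug Sensitivity Score (DSS) is computed from the fitted logistic dose-response curve (area-based; 0 = inactive). Resistant lines and the 'in 1µM tamoxifen' arms were tested in 1 µM 4-OH-tamoxifen.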

[9] = system: BT-474 Tam1; experiment: as above; settings: 4-OH-tamoxifen in medium 1 µM; 72 h
Procedure: as §2

[10] = system: T-47D Tam1; experiment: as above; settings: 4-OH-tamoxifen in medium 1 µM; 72 h
Procedure: as §2

[11] = system: BT-474; experiment: as above; settings: 72 h
Procedure: as §2

[12] = system: ZR-75-1 Tam2; experiment: as above; settings: 4-OH-tamoxifen in medium 1 µM; 72 h
Procedure: as §2

[13] = system: ZR-75-1 Tam1; experiment: as above; settings: 4-OH-tamoxifen in medium 1 µM; 72 h
Procedure: as §2

[14] = system: T-47D; experiment: as above; settings: 72 h
Procedure: as §2

[15] = system: BT-474 Tam2; experiment: as above; settings: 4-OH-tamoxifen in medium 1 µM; 72 h
Procedure: as §2

[16] = system: T-47D Tam2; experiment: as above; settings: 4-OH-tamoxifen in medium 1 µM; 72 h
Procedure: as §2

[17] = system: ZR-75-1; experiment: as above; settings: 72 h
Procedure: as §2

[18] = system: MCF-7 Tam1; experiment: as above; settings: 4-OH-tamoxifen in medium 1 µM; 72 h
Procedure: as §2

[19] = system: ZR-75-1; experiment: relative IC50 (midpoint of fitted logistic curve, plateau may be below 50% inhibition; CellTiter-Glo viability); higher = less potent; settings: 72 h
Summary of the method: as §1

[20] = system: ZR-75-1 Tam2; experiment: as above; settings: 4-OH-tamoxifen in medium 1 µM; 72 h
Summary of the method: as §1

[21] = system: ZR-75-1 Tam1; experiment: as above; settings: 4-OH-tamoxifen in medium 1 µM; 72 h
Summary of the method: as §1

[22] = system: MCF-7 Tam1; experiment: as above; settings: 4-OH-tamoxifen in medium 1 µM; 72 h
Summary of the method: as §1

relative IC50 ([1]; 4-OH-tamoxifen in medium 0 µM)	relative IC50 ([1]; 4-OH-tamoxifen in medium 1 µM)	relative IC50 [2]	relative IC50 [3]	relative IC50 ([4]; 4-OH-tamoxifen in medium 0 µM)	relative IC50 ([4]; 4-OH-tamoxifen in medium 1 µM)	relative IC50 ([5]; 4-OH-tamoxifen in medium 0 µM)	relative IC50 [6]	relative IC50 [7]	relative IC50 ([5]; 4-OH-tamoxifen in medium 1 µM)	Compound	drug sensitivity score ([8]; 4-OH-tamoxifen in medium 0 µM)	drug sensitivity score ([8]; 4-OH-tamoxifen in medium 1 µM)	drug sensitivity score [9]	drug sensitivity score [10]	drug sensitivity score ([11]; 4-OH-tamoxifen in medium 0 µM)	drug sensitivity score ([11]; 4-OH-tamoxifen in medium 1 µM)	drug sensitivity score [12]	drug sensitivity score [13]	drug sensitivity score ([14]; 4-OH-tamoxifen in medium 0 µM)	drug sensitivity score ([14]; 4-OH-tamoxifen in medium 1 µM)	drug sensitivity score [15]	drug sensitivity score [16]	drug sensitivity score ([17]; 4-OH-tamoxifen in medium 0 µM)	drug sensitivity score ([17]; 4-OH-tamoxifen in medium 1 µM)	drug sensitivity score [18]	relative IC50 ([19]; 4-OH-tamoxifen in medium 0 µM)	relative IC50 [20]	relative IC50 [21]	relative IC50 [22]	relative IC50 ([19]; 4-OH-tamoxifen in medium 1 µM)
2.92 µM	1.1 µM	3.23 µM	1.57 µM	3.3 µM	4.06 µM	1.53 µM	3.22 µM	2.31 µM	–	CCc1cncnc1N1CCN(Cc2nc3ccc(C(F)(F)F)cc3[nH]2)CC1	1.96	2.72	3.7	2.79	1.64	2.18	1.31	0.834	2.8	0.435	2.05	1.89	0.27	1.12	0.774	–	–	–	–	–
–	–	0.406 µM	0.0432 µM	> 1 µM	0.458 µM	–	–	0.337 µM	0.391 µM	Cc1ccc(C(=O)Nc2ccc(CN3CCN(C)CC3)c(C(F)(F)F)c2)cc1C#Cc1cnc2cccnn12	0	0.178	1.26	11.6	0	1.07	0.0834	0.0086	0.62	1.21	0	1.72	0	0.047	0.248	> 1 µM	–	–	–	–
4.4 µM	0.335 µM	2.12 µM	3.41 µM	–	3.38 µM	4.12 µM	2.83 µM	1.57 µM	3.48 µM	CC(C)n1cnc2c(NCCc3ccc(O)cc3)nc(-c3csc4ccccc34)nc21 [StemRegenin 1]	1.85	11.7	7.32	1.95	1.47	5.07	1.51	0.327	1.21	2.41	5.49	4.97	0	0.414	0.218	–	–	–	–	–
0.109 µM	–	–	0.0678 µM	0.0285 µM	0.0204 µM	–	–	0.0754 µM	–	CC[C@@H]1C(=O)N(C)c2cnc(Nc3ccc(C(=O)NC4CCN(C)CC4)cc3OC)nc2N1C1CCCC1 [BI 2536]	3.44	10.1	1.24	3.5	3.73	7.89	1.18	1	3.7	0.711	0.933	4.25	2.89	2.08	0	–	–	–	–	–
> 10 µM	> 10 µM	> 10 µM	> 10 µM	> 10 µM	–	> 10 µM	> 10 µM	–	> 10 µM	CCCS(=O)(=O)Nc1ccc(F)c(C(=O)c2c[nH]c3ncc(-c4ccc(Cl)cc4)cc23)c1F [Vemurafenib (PLX4032)]	0	0	0	0	0	0.086	0	0	0	0	0	1.67	0	0	0	> 10 µM	> 10 µM	> 10 µM	> 10 µM	–
–	–	> 10 µM	> 10 µM	> 10 µM	> 10 µM	> 10 µM	> 10 µM	> 10 µM	> 10 µM	CN(Cc1cnc2nc(N)nc(N)c2n1)c1ccc(C(=O)N[C@@H](CCC(=O)O)C(=O)O)cc1 [Methotrexate]	0.338	3.04	0	0	0	0	0.0419	1.07	0	0	0	0	6.76	0	0	0.197 µM	–	–	–	> 10 µM
> 10 µM	> 10 µM	1.37 µM	1.23 µM	1.77 µM	1.25 µM	–	1.96 µM	0.37 µM	> 10 µM	C#Cc1cccc(Nc2ncnc3cc(OCCOC)c(OCCOC)cc23)c1 [Erlotinib]	0	0	9.3	3.91	3.4	9.97	0.0461	0.136	0.57	0	7.08	5.31	0	0.0315	0.0215	> 10 µM	–	–	–	–
0.561 µM	0.376 µM	0.853 µM	0.0653 µM	0.719 µM	1.02 µM	0.804 µM	0.785 µM	0.584 µM	0.223 µM	CC(=O)OC[C@H]1O[C@@H]([S-])[C@H](OC(C)=O)[C@@H](OC(C)=O)[C@@H]1OC(C)=O.CCP(CC)CC.[Au+] [Auranofin]	6.78	2.93	5	11.5	3.43	4.22	0.324	0.421	1.36	4.22	3.68	4.19	0.254	1.38	1.48	–	–	–	–	–
> 10 µM	> 10 µM	> 10 µM	> 10 µM	> 10 µM	> 10 µM	> 10 µM	> 10 µM	–	–	CCCC(CCC)C(=O)O [Valproic acid]	0	0	0	0	0	0	0	0	0	0.0101	0	1.73	0	0	0	> 10 µM	> 10 µM	> 10 µM	> 10 µM	> 10 µM
–	3.48 µM	2.39 µM	–	3.47 µM	3.2 µM	> 10 µM	3.61 µM	3.29 µM	–	CC/C(=C(\c1ccccc1)c1ccc(OCCN(C)C)cc1)c1ccccc1 [Tamoxifen citrate]	0	3.99	6.73	0.576	1.53	5.05	0.865	0.0116	0	0	4.61	2.54	0	1.69	0.973	> 10 µM	–	–	–	3.54 µM
–	4.19 µM	0.0654 µM	> 10 µM	1.03 µM	0.115 µM	–	0.176 µM	1.41 µM	> 10 µM	COc1cc2ncnc(Nc3ccc(F)c(Cl)c3)c2cc1OCCCN1CCOCC1 [Gefitinib]	2.5	1.2	24.9	0	9.4	22.7	1.16	1.51	0.0062	0	20.3	4.57	0.0359	1.45	0	–	–	–	–	–
> 10 µM	> 10 µM	> 10 µM	–	> 10 µM	–	–	> 10 µM	> 10 µM	–	C=C(c1ccc(C(=O)O)cc1)c1cc2c(cc1C)C(C)(C)CCC2(C)C [Bexarotene]	0	0	0	3.44	0	0.345	0.973	0	0.69	0.469	0	0	0.367	0.925	3.15	–	–	> 10 µM	–	–

Compound	relative IC50 ([1]; 4-OH-tamoxifen in medium 0 µM)	relative IC50 ([1]; 4-OH-tamoxifen in medium 1 µM)	relative IC50 [2]	relative IC50 [3]	relative IC50 ([4]; 4-OH-tamoxifen in medium 0 µM)	relative IC50 ([4]; 4-OH-tamoxifen in medium 1 µM)	relative IC50 ([5]; 4-OH-tamoxifen in medium 0 µM)	relative IC50 [6]	relative IC50 [7]	relative IC50 ([5]; 4-OH-tamoxifen in medium 1 µM)	drug sensitivity score ([8]; 4-OH-tamoxifen in medium 0 µM)	drug sensitivity score ([8]; 4-OH-tamoxifen in medium 1 µM)	drug sensitivity score [9]	drug sensitivity score [10]	drug sensitivity score ([11]; 4-OH-tamoxifen in medium 0 µM)	drug sensitivity score ([11]; 4-OH-tamoxifen in medium 1 µM)	drug sensitivity score [12]	drug sensitivity score [13]	drug sensitivity score ([14]; 4-OH-tamoxifen in medium 0 µM)	drug sensitivity score ([14]; 4-OH-tamoxifen in medium 1 µM)	drug sensitivity score [15]	drug sensitivity score [16]	drug sensitivity score ([17]; 4-OH-tamoxifen in medium 0 µM)	drug sensitivity score ([17]; 4-OH-tamoxifen in medium 1 µM)	drug sensitivity score [18]	relative IC50 ([19]; 4-OH-tamoxifen in medium 0 µM)	relative IC50 [20]	relative IC50 [21]	relative IC50 [22]	relative IC50 ([19]; 4-OH-tamoxifen in medium 1 µM)
C[C@]12O[C@H](C[C@]1(O)CO)n1c3ccccc3c3c4c(c5c6ccccc6n2c5c31)CNC4=O [Lestaurtinib]	–	> 1 µM	0.349 µM	> 1 µM	–	0.16 µM	> 1 µM	–	> 1 µM	–	0.382	0	2.16	0	0.345	3.7	0.0147	0	0	0.579	0.589	0	0	0	0.391	> 1 µM	–	> 1 µM	–	–
CC(O)(CS(=O)(=O)c1ccc(F)cc1)C(=O)Nc1ccc(C#N)c(C(F)(F)F)c1 (configuration not stated) [Bicalutamide]	> 10 µM	> 10 µM	> 10 µM	> 10 µM	> 10 µM	> 10 µM	> 10 µM	> 10 µM	–	–	0	0	0	0	0	0	0	0	0	0	0	0.0904	0	0	0	> 10 µM	> 10 µM	> 10 µM	> 10 µM	> 10 µM
O=P1(N(CCCl)CCCl)NCCCO1 (configuration not stated) [Clafen (Cyclophosphamide, Endoxan)]	> 40 µM	–	> 40 µM	> 40 µM	> 40 µM	> 40 µM	> 40 µM	> 40 µM	–	> 40 µM	0	0.034	0	0	0	0	0	0	0	0	0	0.114	0	0	0	> 40 µM	> 40 µM	> 40 µM	> 40 µM	> 40 µM
CCC/C=C/C=C/C(=O)O[C@H]1/C(=C/C(=O)OC)C[C@H]2C[C@H]([C@@H](C)O)OC(=O)C[C@H](O)C[C@@H]3C[C@H](OC(C)=O)C(C)(C)[C@](O)(C[C@@H]4C/C(=C/C(=O)OC)C[C@H](/C=C/C(C)(C)[C@]1(O)O2)O4)O3 [Bryostatin 1]	–	–	> 0.1 µM	–	> 0.1 µM	> 0.1 µM	> 0.1 µM	> 0.1 µM	> 0.1 µM	> 0.1 µM	1.22	0.563	0	0.0014	0	0	0	1.05	0	0	0	0	0.213	0	1.73	–	> 0.1 µM	–	–	> 0.1 µM
